In US8802663B2, “Pyrazole oxadiazole derivatives as S1P1 agonists” (Merck Serono SA, priority 2009, dated 2014):
Structures can show the parent of a compound that is named as a salt.

Experiments:
S1P1 [1] = target: T1, S1P1 (Homo sapiens (Human), UniProt P21453); test: Receptor binding assay, [33P]sphingosine 1-phosphate, membranes from CHO cells expressing S1P1; settings: CHO cell membranes, 25 pM [33P]sphingosine 1-phosphate
Description: Receptor binding assay: Membranes were prepared from CHO cells expressing S1P1 or S1P3 for use in ligand and […] binding studies. Cells were suspended in 50 mM TRIS, pH 7.4, 2 mM EDTA, 250 mM Sucrose (buffer A) and 1× Complete protease inhibitor cocktail (Roche), and disrupted at 4° C. by N2 decompression using a cell disruption bomb (Parr Instrument). Following centrifugation at 1000 RPM for 10 min at 4° C., the supernatant was suspended in buffer A and centrifuged again at 19000 RPM for 60 min at 4° C. The pellet was then suspended in 10 mM HEPES, pH 7.4, 1 mM EDTA, 250 mM Sucrose (Buffer B), and 1× Complete EDTA-free protease inhibitor cocktail and homogenized using a potter. Membranes were flash frozen in liquid N2 and stored at −80° C. [33P]sphingosine 1-phosphate (3000 Ci/mmol; American Radiolabeled Chemicals, Inc.) was added to test compounds in DMSO. Membranes and WGA SPA beads (GE Healthcare) were added to give a final volume of 100 μl in 96-well plates with assay concentrations of 25 pM or 10 pM [33P]sphingosine 1-phosphate (respectively for S1P1 or S1P3), 50 mM HEPES, pH 7.5, 5 mM MgCl2, 100 mM NaCl, 0.4% fatty acid-free BSA, 1-5 μg/well of proteins and 100 μg/well of WGA SPA beads. Binding was performed for 60 min at RT on a shaker and bound radioactivity was measured on a PerkinElmer 1450 MicroBeta counter. Specific binding was calculated by subtracting remaining radioactivity in the presence of 1000-fold excess of unlabeled SIP. Binding data were analyzed using the GraphPad Prism program.

S1P1 [2] = target: T1, S1P1; test: 35S-GTPγS binding, membranes from CHO cells expressing S1P1; format: biochemical; settings: CHO cell membranes

T1 sequence (P21453 whole entry, species assumed): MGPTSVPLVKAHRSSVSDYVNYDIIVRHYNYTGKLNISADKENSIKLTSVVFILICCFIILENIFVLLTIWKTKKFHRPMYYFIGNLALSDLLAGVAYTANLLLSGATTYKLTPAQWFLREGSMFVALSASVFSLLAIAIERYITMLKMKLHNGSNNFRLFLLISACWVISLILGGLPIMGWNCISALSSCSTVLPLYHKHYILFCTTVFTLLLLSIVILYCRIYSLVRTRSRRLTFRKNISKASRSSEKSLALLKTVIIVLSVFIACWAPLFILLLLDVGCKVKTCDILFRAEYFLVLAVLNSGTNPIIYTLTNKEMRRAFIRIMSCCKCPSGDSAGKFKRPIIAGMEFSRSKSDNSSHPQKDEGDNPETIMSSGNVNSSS

Ki (S1P1 [1]) [nM] | EC50 (S1P1 [2]) [nM] | Structure (SMILES)
409 |  | COCc1c(-c2nc(-c3ccc(/C=C/C(=O)O)cc3)no2)cnn1C1CCCCC1 [Example 98, (E)-3-(4-(5-(1-cyclohexyl-5-(methoxymethyl)-1H-pyrazol-4-yl)-1,2,4-oxadiazol-3-yl)phenyl)acrylic acid]
 | 82 | COCc1c(-c2nc(-c3ccc(O)cc3)no2)cnn1C1CCCCC1 [Example 123, 4-(5-(1-cyclohexyl-5-(methoxymethyl)-1H-pyrazol-4-yl)-1,2,4-oxadiazol-3-yl)phenol]
 | 382 | COCc1c(-c2nc(-c3ccc(N)nc3)no2)cnn1C1CCCCC1 [Example 124, 5-(5-(1-cyclohexyl-5-(methoxymethyl)-1H-pyrazol-4-yl)-1,2,4-oxadiazol-3-yl)pyridin-2-amine]
 | 168 | COCc1c(-c2nc(-c3cccc(O)c3)no2)cnn1C1CCCCC1 [Example 126, 3-(5-(1-cyclohexyl-5-(methoxymethyl)-1H-pyrazol-4-yl)-1,2,4-oxadiazol-3-yl)phenol]
 | 172 | COCc1c(-c2nc(-c3ccc(CCN(C)C)cc3)no2)cnn1C1CCCCC1 [Example 127, 2-(4-(5-(1-cyclohexyl-5-(methoxymethyl)-1H-pyrazol-4-yl)-1,2,4-oxadiazol-3-yl)phenyl)-N,N-dimethylethanamine]
 | 158 | COCc1c(-c2nc(-c3ccc(CCNC(C)C)cc3)no2)cnn1C1CCCCC1 [Example 128, N-(4-(5-(1-cyclohexyl-5-(methoxymethyl)-1H-pyrazol-4-yl)-1,2,4-oxadiazol-3-yl)phenethyl)propan-2-amine formate]
 | 438 | COCc1c(-c2nc(-c3ccc(CCN4CCC(C(=O)OC)CC4)cc3)no2)cnn1C1CCCCC1 [Example 129, Methyl 1-(4-(5-(1-cyclohexyl-5-(methoxymethyl)-1H-pyrazol-4-yl)-1,2,4-oxadiazol-3-yl)phenethyl)piperidine-4-carboxylate]
 | 36 | COCc1c(-c2nc(-c3ccc(CCN4CCC(C(=O)O)CC4)cc3)no2)cnn1C1CCCCC1 [Example 130, 1-(4-(5-(1-cyclohexyl-5-(methoxymethyl)-1H-pyrazol-4-yl)-1,2,4-oxadiazol-3-yl)phenethyl)piperidine-4-carboxylic acid]
 | 181 | COCc1c(-c2nc(-c3ccc(OC4CCNC4)cc3)no2)cnn1C1CCCCC1 (stereo not shown) [Example 131, 5-(1-cyclohexyl-5-(methoxymethyl)-1H-pyrazol-4-yl)-3-(4-(pyrrolidin-3-yloxy)phenyl)-1,2,4-oxadiazole]
 | 18 | O=C(O)C1CCN(Cc2ccc(-c3noc(-c4cnn(C5CCCCC5)c4C4CCOCC4)n3)cc2)CC1 [Example 132, 1-(4-(5-(1-cyclohexyl-5-(tetrahydro-2H-pyran-4-yl)-1H-pyrazol-4-yl)-1,2,4-oxadiazol-3-yl)benzyl)piperidine-4-carboxylic acid]
122 |  | COCc1c(-c2nc(-c3ccc(COCCCC(=O)O)cc3)no2)cnn1C1CCCCC1 [Example 133, 4-(4-(5-(1-cyclohexyl-5-(methoxymethyl)-1H-pyrazol-4-yl)-1,2,4-oxadiazol-3-yl)benzyloxy)butanoic acid]
128 |  | COCc1c(-c2nc(-c3ccc(OCCCC(=O)O)cc3)no2)cnn1C1CCCCC1 [Example 134, 4-(4-(5-(1-cyclohexyl-5-(methoxymethyl)-1H-pyrazol-4-yl)-1,2,4-oxadiazol-3-yl)Phenoxy)butanoic acid]
25 |  | COCc1c(-c2nc(-c3cccc(CO)c3)no2)cnn1C1CCCCC1 [Example 138]
393 |  | COCc1c(-c2nc(-c3ccc(CCC(=O)O)cc3)no2)cnn1C1CCCCC1 [Example 139]

Structure (SMILES) | Ki (S1P1 [1]) [nM] | EC50 (S1P1 [2]) [nM]
COCc1c(-c2nc(-c3cccc(COCC(=O)O)c3)no2)cnn1C1CCCCC1 [Example 135, {3-[5-(1-Cyclohexyl-5-methoxymethyl-1H-pyrazol-4-yl)-[1,2,4]oxadiazol-3-yl]-benzyloxy}-acetic acid] | 41.5 | 
c1cnn(Cc2ccc(-c3noc(-c4cnn(C5CCCCC5)c4-c4ccncc4)n3)cc2)c1 [Example 137, 4-{2-Cyclohexyl-4-[3-(4-pyrazol-1-ylmethyl-phenyl)-[1,2,4]oxadiazol-5-yl]-2H-pyrazol-3-yl}-pyridine] | 5.16 | 
